The text below walks through data of US8551937B2, “Peptide having an extending action for half-life of object peptide in plasma” (priority 2008, dated 2013).

Where a SMILES comes first, the peptide text is derived from it.

A short description of one data set: Motilin immunoreactivity concentration in plasma, half-life after intravenous administration (Example 8). The following applies: male, SD, rat, in vivo, iv, 10 nmol/kg. The method, boiled down: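 Male SD rats (7 weeks, n=3/group) received human motilin or derivative at 10 nmol/kg i.v. via tail vein; arterial blood was sampled up to 60 min, with EDTA and aprotinin added. Plasma motilin immunoreactivity was measured by competitive RIA using a rabbit polyclonal antibody against native motilin residues 1–12 and ^125I-[Tyr^7] human motilin tracer.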
In the case of `CC[C@H](C)[C@H](NC(=O)[C@@H]1CCCN1C(=O)[C@@H](NC(=O)[C@@H](N)Cc1ccccc1)C(C)C)C(=O)N[C@@H](Cc1ccccc1)C(=O)N[C@H](C(=O)N[C@@H](Cc1ccc(O)cc1)C(=O)NCC(=O)N[C@@H](CCC(=O)O)C(=O)N[C@@H](CC(C)C)C(=O)N[C@@H](CCC(N)=O)C(=O)N[C@@H](CCCNC(=N)N)C(=O)N[C@H](C(=O)N[C@@H](CCC(N)=O)C(=O)N[C@@H](CCC(N)=O)C(=O)N[C@@H](CCCCN)C(=O)N[C@@H](CCCCN)C(=O)N[C@@H](C)C(=O)N[C@@H](Cc1ccc(O)cc1)C(=O)N[C@@H](CO)C(=O)N1CCC[C@H]1C(=O)N[C@@H](CC(=O)O)C(=O)N[C@@H](CCCCN)C(=O)N[C@@H](CCC(=O)O)C(=O)N[C@@H](CCCNC(=N)N)C(=O)N[C@@H](CCCCN)C(=O)N1CCC[C@H]1C(=O)N1CCC[C@H]1C(=O)N[C@@H](C)C(=O)N[C@@H](CC(C)C)C(=O)N[C@@H](CCC(N)=O)C(=O)N1CCC[C@H]1C(=O)N[C@@H](CCCNC(=N)N)C(=O)O)C(C)C)[C@@H](C)O` [Chimeric motilin (XII)(MGP1)] (H-FVPIFTYGELQRVQQKKAYSPDKERKPPALQPR-OH; N-terminus and C-terminus assumed), the half-life was determined as 13 min. On the same count and under the same terms, in the case of `CC[C@H](C)[C@H](NC(=O)[C@@H]1CCCN1C(=O)[C@@H](NC(=O)[C@@H](N)Cc1ccccc1)C(C)C)C(=O)N[C@@H](Cc1ccccc1)C(=O)N[C@H](C(=O)N[C@@H](Cc1ccc(O)cc1)C(=O)NCC(=O)N[C@@H](CCC(=O)O)C(=O)N[C@@H](CC(C)C)C(=O)N[C@@H](CCC(N)=O)C(=O)N[C@@H](CCCNC(=N)N)C(=O)N[C@H](C(=O)N[C@@H](CCC(N)=O)C(=O)N[C@@H](CCC(N)=O)C(=O)N[C@@H](CCCCN)C(=O)N[C@@H](CCCCN)C(=O)N[C@@H](C)C(=O)N[C@@H](Cc1ccc(O)cc1)C(=O)N[C@@H](CO)C(=O)N1CCC[C@H]1C(=O)N[C@@H](CC(=O)O)C(=O)N[C@@H](CCCCN)C(=O)N[C@@H](CCC(=O)O)C(=O)N[C@@H](CCCNC(=N)N)C(=O)N[C@@H](CCCCN)C(=O)N1CCC[C@H]1C(=O)N1CCC[C@H]1C(=O)N[C@@H](C)C(=O)N[C@@H](CCCCN)C(=O)N[C@@H](CC(C)C)C(=O)N[C@@H](CCC(N)=O)C(=O)N1CCC[C@H]1C(=O)N[C@@H](CCCNC(=N)N)C(=O)O)C(C)C)[C@@H](C)O` [Chimeric motilin (XIII)(MGP2)] (H-FVPIFTYGELQRVQQKKAYSPDKERKPPAKLQPR-OH; N-terminus and C-terminus assumed) it was 13.1 min.

The next data set is described as follows: Motilin immunoreactivity concentration in plasma, half-life after intravenous administration (Example 6). It counts as in vivo, rat. The note with it: SD, rat, plasma, 10 nmol/kg, male rats, N = 3, read-out: T½ Mean Value.
Description: The experiment was carried out using rats into which polyethylene tube (PE-50 manufactured by Clay Adams) was previously inserted into thigh artery under an anesthetized condition with Nembutal. As to a test system, male SD strain rats (Nippon Charles River) of 7 weeks age were used where one group comprised 3 rats. Human type motilin or a derivative thereof in a dose of 10 nmol/kg was administered into tail vein of the rat and the blood before the administration and until 60 minutes after the administration was collected by a polyethylene tube inserted into the thigh artery. To the collected blood were added EDTA (manufactured by Dojin Laboratories) and aprotinin (manufactured by Bayer) as a stabilizer and an anti-coagulant, respectively and the plasma was separated therefrom by centrifugal separation.
For the compound `CC[C@H](C)[C@H](NC(=O)[C@@H]1CCCN1C(=O)[C@@H](NC(=O)[C@@H](N)Cc1ccccc1)C(C)C)C(=O)N[C@@H](Cc1ccccc1)C(=O)N[C@H](C(=O)N[C@@H](Cc1ccc(O)cc1)C(=O)NCC(=O)N[C@@H](CCC(=O)O)C(=O)N[C@@H](CC(C)C)C(=O)N[C@@H](CCC(N)=O)C(=O)N[C@@H](CCCNC(=N)N)C(=O)N[C@@H](CCCCN)C(=O)N[C@@H](CCC(=O)O)C(=O)N[C@@H](CO)C(=O)N[C@@H](CCCCN)C(=O)N[C@@H](CCCCN)C(=O)N1CCC[C@H]1C(=O)N1CCC[C@H]1C(=O)N[C@@H](C)C(=O)N[C@@H](CCCCN)C(=O)N[C@@H](CC(C)C)C(=O)N[C@@H](CCC(N)=O)C(=O)N1CCC[C@H]1C(=O)N[C@@H](CCCNC(=N)N)C(=O)O)[C@@H](C)O` [Chimeric motilin (F)] (H-FVPIFTYGELQRKESKKPPAKLQPR-OH; N-terminus and C-terminus assumed), the half-life was found to be 9.37 min. Same read-out and setting: the value for `CC[C@H](C)[C@H](NC(=O)[C@@H]1CCCN1C(=O)[C@@H](NC(=O)[C@@H](N)Cc1ccccc1)C(C)C)C(=O)N[C@@H](Cc1ccccc1)C(=O)N[C@H](C(=O)N[C@@H](Cc1ccc(O)cc1)C(=O)NCC(=O)N[C@@H](CCC(=O)O)C(=O)N[C@@H](CC(C)C)C(=O)N[C@@H](CCC(N)=O)C(=O)N[C@@H](CCCNC(=N)N)C(=O)N[C@H](C(=O)N[C@@H](CCC(N)=O)C(=O)N[C@@H](CCC(N)=O)C(=O)N[C@@H](CCCNC(=N)N)C(=O)N[C@@H](CCCCN)C(=O)N[C@@H](CCC(=O)O)C(=O)N[C@@H](CO)C(=O)N[C@@H](CCCCN)C(=O)N[C@@H](CCCCN)C(=O)N1CCC[C@H]1C(=O)N1CCC[C@H]1C(=O)N[C@@H](C)C(=O)N[C@@H](CCCCN)C(=O)O)C(C)C)[C@@H](C)O` [Chimeric motilin (I)] (H-FVPIFTYGELQRVQQRKESKKPPAK-OH; N-terminus and C-terminus assumed) was 5.76 min.

Regarding `CC[C@H](C)[C@H](NC(=O)[C@@H]1CCCN1C(=O)[C@@H](NC(=O)[C@@H](N)Cc1ccccc1)C(C)C)C(=O)N[C@@H](Cc1ccccc1)C(=O)N[C@H](C(=O)N[C@@H](Cc1ccc(O)cc1)C(=O)NCC(=O)N[C@@H](CCC(=O)O)C(=O)N[C@@H](CC(C)C)C(=O)N[C@@H](CCC(N)=O)C(=O)N[C@@H](CCCNC(=N)N)C(=O)N[C@@H](CO)C(=O)N[C@@H](CCCCN)C(=O)N[C@@H](CCCCN)C(=O)N1CCC[C@H]1C(=O)N1CCC[C@H]1C(=O)N[C@@H](C)C(=O)N[C@@H](CCCCN)C(=O)N[C@@H](CC(C)C)C(=O)N[C@@H](CCC(N)=O)C(=O)N1CCC[C@H]1C(=O)N[C@@H](CCCNC(=N)N)C(=O)O)[C@@H](C)O` [Chimeric motilin (G)] (H-FVPIFTYGELQRSKKPPAKLQPR-OH; N-terminus and C-terminus assumed), the half-life came out at 5.25 min. Same read-out and setting: the value for `CC[C@H](C)[C@H](NC(=O)[C@@H]1CCCN1C(=O)[C@@H](NC(=O)[C@@H](N)Cc1ccccc1)C(C)C)C(=O)N[C@@H](Cc1ccccc1)C(=O)N[C@H](C(=O)N[C@@H](Cc1ccc(O)cc1)C(=O)NCC(=O)N[C@@H](CCC(=O)O)C(=O)N[C@@H](CC(C)C)C(=O)N[C@@H](CCC(N)=O)C(=O)N[C@@H](CCCNC(=N)N)C(=O)N[C@H](C(=O)N[C@@H](CCC(N)=O)C(=O)N[C@@H](CCC(N)=O)C(=O)N[C@@H](CCCNC(=N)N)C(=O)N[C@@H](CCCCN)C(=O)N[C@@H](CCC(=O)O)C(=O)N[C@@H](CO)C(=O)N[C@@H](CCCCN)C(=O)N[C@@H](CCCCN)C(=O)N1CCC[C@H]1C(=O)N1CCC[C@H]1C(=O)N[C@@H](C)C(=O)N[C@@H](CCCCN)C(=O)N[C@@H](CC(C)C)C(=O)N[C@@H](CCC(N)=O)C(=O)O)C(C)C)[C@@H](C)O` [Chimeric motilin (H)] (H-FVPIFTYGELQRVQQRKESKKPPAKLQ-OH; N-terminus and C-terminus assumed) was 10.4 min; that for `CC[C@H](C)[C@H](NC(=O)[C@@H]1CCCN1C(=O)[C@@H](NC(=O)[C@@H](N)Cc1ccccc1)C(C)C)C(=O)N[C@@H](Cc1ccccc1)C(=O)N[C@H](C(=O)N[C@@H](Cc1ccc(O)cc1)C(=O)NCC(=O)N[C@@H](CCC(=O)O)C(=O)N[C@@H](CC(C)C)C(=O)N[C@@H](CCC(N)=O)C(=O)N[C@@H](CCCNC(=N)N)C(=O)N[C@H](C(=O)N[C@@H](CCC(N)=O)C(=O)N[C@@H](CCC(N)=O)C(=O)N[C@@H](CCCNC(=N)N)C(=O)N[C@@H](CCCCN)C(=O)N[C@@H](CCC(=O)O)C(=O)N[C@@H](CO)C(=O)O)C(C)C)[C@@H](C)O` [Chimeric motilin (L), FVPIFTYGELQRVQQRKES] (H-FVPIFTYGELQRVQQRKES-OH; N-terminus and C-terminus assumed) was 4.89 min. For `CC[C@H](C)[C@H](NC(=O)[C@@H]1CCCN1C(=O)[C@@H](NC(=O)[C@@H](N)Cc1ccccc1)C(C)C)C(=O)N[C@@H](Cc1ccccc1)C(=O)N[C@H](C(=O)N[C@@H](Cc1ccc(O)cc1)C(=O)NCC(=O)N[C@@H](CCC(=O)O)C(=O)N[C@@H](CC(C)C)C(=O)N[C@@H](CCC(N)=O)C(=O)N[C@@H](CCCNC(=N)N)C(=O)N[C@@H](CCC(N)=O)C(=O)N[C@@H](CCCNC(=N)N)C(=O)N[C@H](C(=O)N[C@@H](CCC(N)=O)C(=O)N[C@@H](CCC(N)=O)C(=O)N[C@@H](CCCNC(=N)N)C(=O)N[C@@H](CCCCN)C(=O)N[C@@H](CCC(=O)O)C(=O)N[C@@H](CO)C(=O)N[C@@H](CCCCN)C(=O)N[C@@H](CCCCN)C(=O)N1CCC[C@H]1C(=O)N1CCC[C@H]1C(=O)N[C@@H](C)C(=O)N[C@@H](CCCCN)C(=O)N[C@@H](CC(C)C)C(=O)N[C@@H](CCC(N)=O)C(=O)N1CCC[C@H]1C(=O)N[C@@H](CCCNC(=N)N)C(=O)O)C(C)C)[C@@H](C)O` [Chimeric motilin (C)] (H-FVPIFTYGELQRQRVQQRKESKKPPAKLQPR-OH; N-terminus and C-terminus assumed), the half-life was found to be 8.9 min. For `CC[C@H](C)[C@H](NC(=O)[C@@H]1CCCN1C(=O)[C@@H](NC(=O)[C@@H](N)Cc1ccccc1)C(C)C)C(=O)N[C@@H](Cc1ccccc1)C(=O)N[C@H](C(=O)N[C@@H](Cc1ccc(O)cc1)C(=O)NCC(=O)N[C@@H](CCC(=O)O)C(=O)N[C@@H](CC(C)C)C(=O)N[C@@H](CCC(N)=O)C(=O)N[C@@H](CCCNC(=N)N)C(=O)N[C@H](C(=O)N[C@@H](CCC(N)=O)C(=O)N[C@@H](CCC(N)=O)C(=O)N[C@@H](CCCNC(=N)N)C(=O)N[C@@H](CCCCN)C(=O)N[C@@H](CCC(=O)O)C(=O)N[C@@H](CO)C(=O)N[C@@H](CCCCN)C(=O)N[C@@H](CCCCN)C(=O)N1CCC[C@H]1C(=O)N1CCC[C@H]1C(=O)O)C(C)C)[C@@H](C)O` [Chimeric motilin (J)] (H-FVPIFTYGELQRVQQRKESKKPP-OH; N-terminus and C-terminus assumed), the half-life was 6.34 min. On the same count and under the same terms, the value for `CC[C@H](C)[C@H](NC(=O)[C@@H]1CCCN1C(=O)[C@@H](NC(=O)[C@@H](N)Cc1ccccc1)C(C)C)C(=O)N[C@@H](Cc1ccccc1)C(=O)N[C@H](C(=O)N[C@@H](Cc1ccc(O)cc1)C(=O)NCC(=O)N[C@@H](CCC(=O)O)C(=O)N[C@@H](CC(C)C)C(=O)N[C@@H](CCC(N)=O)C(=O)N[C@@H](CCCNC(=N)N)C(=O)N[C@H](C(=O)N[C@@H](CCC(N)=O)C(=O)N[C@@H](CCC(N)=O)C(=O)N[C@@H](CCCNC(=N)N)C(=O)N[C@@H](CCCCN)C(=O)N[C@@H](CCC(=O)O)C(=O)N[C@@H](CO)C(=O)N[C@@H](CCCCN)C(=O)N[C@@H](CCCCN)C(=O)O)C(C)C)[C@@H](C)O` [Chimeric motilin (K)] (H-FVPIFTYGELQRVQQRKESKK-OH; N-terminus and C-terminus assumed) was 6.14 min.

The same data set, now with this note: rats.
Take `CC[C@H](C)[C@H](NC(=O)[C@@H]1CCCN1C(=O)[C@@H](NC(=O)[C@@H](N)Cc1ccccc1)C(C)C)C(=O)N[C@@H](Cc1ccccc1)C(=O)N[C@H](C(=O)N[C@@H](Cc1ccc(O)cc1)C(=O)NCC(=O)N[C@@H](CCC(=O)O)C(=O)N[C@@H](CC(C)C)C(=O)N[C@@H](CCC(N)=O)C(=O)N[C@@H](CCCNC(=N)N)C(=O)N[C@@H](CO)C(=O)N[C@@H](CCCCN)C(=O)N[C@@H](CCCCN)C(=O)N1CCC[C@H]1C(=O)N1CCC[C@H]1C(=O)N[C@@H](C)C(=O)N[C@@H](CCCCN)C(=O)N[C@@H](CC(C)C)C(=O)N[C@@H](CCC(N)=O)C(=O)N1CCC[C@H]1C(=O)N[C@@H](CCCNC(=N)N)C(=O)O)[C@@H](C)O` [Chimeric motilin (G)] (H-FVPIFTYGELQRSKKPPAKLQPR-OH; N-terminus and C-terminus assumed): the “disappearance half-time extending action in vivo compared with native motilin” value is “unable to be confirmed”. Same read-out and setting: the value for `CC[C@H](C)[C@H](NC(=O)[C@@H]1CCCN1C(=O)[C@@H](NC(=O)[C@@H](N)Cc1ccccc1)C(C)C)C(=O)N[C@@H](Cc1ccccc1)C(=O)N[C@H](C(=O)N[C@@H](Cc1ccc(O)cc1)C(=O)NCC(=O)N[C@@H](CCC(=O)O)C(=O)N[C@@H](CC(C)C)C(=O)N[C@@H](CCC(N)=O)C(=O)N[C@@H](CCCNC(=N)N)C(=O)N[C@H](C(=O)N[C@@H](CCC(N)=O)C(=O)N[C@@H](CCC(N)=O)C(=O)N[C@@H](CCCNC(=N)N)C(=O)N[C@@H](CCCCN)C(=O)N[C@@H](CCC(=O)O)C(=O)N[C@@H](CO)C(=O)O)C(C)C)[C@@H](C)O` [Chimeric motilin (L), FVPIFTYGELQRVQQRKES] (H-FVPIFTYGELQRVQQRKES-OH; N-terminus and C-terminus assumed) was “unable to be confirmed”.
